Like-named read-outs stand apart in the source and are kept apart here.
Key:
Type in all cases: cell-based
Ba/F3-FL-EGFR = molecular target: T1, Ba/F3-FL-EGFR (Homo sapiens, UniProt P00533); assay: CellTiter-Glo proliferation, Ba/F3-FL-EGFR; settings: 72 hours, read-out: Ba/F3-FL-EGFR IC50/nM
T1 construct: FL read as full length
Method: (§1) Promega CellTiter-Glo reagent was used to detect the effects of small molecule inhibitors on the proliferation of five Ba/F3 cell lines (Ba/F3-FL-EGFR, Ba/F3-FL-EGFR-L858R, Ba/F3-FL-EGFR-L858R-T790M-C797S, Ba/F3-TEL-EGFR-L858R-C797S and Ba/F3-FL-EGFR-del19-C797S).
(§2) The cell lines were cultured in an incubator at 37° C. and 5% CO2. Cells were passaged regularly and cells in the logarithmic phase were used for plating. 95 μL of cell suspension was added to each well of the cell plate, and culture medium without cells (containing 0.1% DMSO) was added to the Min control wells. Substance addition for compound detection cell plate: 5 μL of 20× compound working solution was added to the cell culture plate as shown in the table below. 50 μL of DMSO-cell culture medium mixture was added to the Max control, with the final DMSO concentration of 0.1%. 5 μL of DMSO-cell culture medium mixture was added to the Max control. The final DMSO concentration was 0.1%.
(§3) The compounds to be tested were added as per the table below
(§4) Cell viability was detected by CellTiter-Glo luminescence assay. Data analysis:
(§5) The cell proliferation inhibition rate (Inhibition Rate) data was processed using the following formula: […]
(§6) wherein: RLUDrug represents the relative luminescence unit of the cells with the addition of drug, RLUMin represents the luminescence unit of the culture medium, and RLUMax represents the relative luminescence unit of the cells with the addition of DMSO.
(§7) The inhibition rates corresponding to different concentrations of compounds were calculated in EXCEL, and then the inhibition rate curve was plotted using GraphPad Prism software and related parameters including the maximum and minimum inhibition rates of cells and IC50 values were calculated.

Ba/F3-FL-EGFR-L858R = Ba/F3-FL-EGFR-L858R (Homo sapiens, UniProt P00533, L858R, cells depend on it); assay: CellTiter-Glo proliferation, Ba/F3-FL-EGFR-L858R; settings: 72 hours, read-out: Ba/F3-FL-EGFR-L858R IC50/nM
Method: as §1, §2, §3, §4, §5, §6, §7

[1] = molecular target: T2, Ba/F3-TEL-EGFR-L858R-C797S (Homo sapiens, UniProt P00533, C797S/L858R, cells depend on it); assay: CellTiter-Glo proliferation, Ba/F3-TEL-EGFR-L858R-C797S; settings: 72 hours, read-out: Ba/F3-TEL-EGFR-L858R-C797S IC50/nM
T2 construct: fused on or other part: N-terminal TEL (ETV6) oligomerising part fused to the EGFR intracellular/kinase part; P41212 (Transcription factor ETV6)
Method: as §1, §2, §3, §4, §5, §6, §7

[2] = molecular target: Ba/F3-FL-EGFR-L858R-T790M-C797S (Homo sapiens, UniProt P00533, T790M/C797S/L858R, cells depend on it); assay: CellTiter-Glo proliferation, Ba/F3-FL-EGFR-L858R-T790M-C797S; settings: 72 hours, read-out: Ba/F3-FL-EGFR-L858R-T790M-C797S IC50/nM
Method: as §1, §2, §3, §4, §5, §6, §7

[3] = system: Ba/F3-FL-EGFR-del19-C797S; assay: CellTiter-Glo proliferation, Ba/F3-FL-EGFR-del19-C797S; settings: proliferation, 72 hours, CellTiter-Glo, read-out: Ba/F3-FL-EGFR-del19-C797S IC50/nM
Method: as §1, §2, §3, §4, §5, §6, §7

T2 sequence (P00533 whole entry C797S/L858R, the tested form may be a part): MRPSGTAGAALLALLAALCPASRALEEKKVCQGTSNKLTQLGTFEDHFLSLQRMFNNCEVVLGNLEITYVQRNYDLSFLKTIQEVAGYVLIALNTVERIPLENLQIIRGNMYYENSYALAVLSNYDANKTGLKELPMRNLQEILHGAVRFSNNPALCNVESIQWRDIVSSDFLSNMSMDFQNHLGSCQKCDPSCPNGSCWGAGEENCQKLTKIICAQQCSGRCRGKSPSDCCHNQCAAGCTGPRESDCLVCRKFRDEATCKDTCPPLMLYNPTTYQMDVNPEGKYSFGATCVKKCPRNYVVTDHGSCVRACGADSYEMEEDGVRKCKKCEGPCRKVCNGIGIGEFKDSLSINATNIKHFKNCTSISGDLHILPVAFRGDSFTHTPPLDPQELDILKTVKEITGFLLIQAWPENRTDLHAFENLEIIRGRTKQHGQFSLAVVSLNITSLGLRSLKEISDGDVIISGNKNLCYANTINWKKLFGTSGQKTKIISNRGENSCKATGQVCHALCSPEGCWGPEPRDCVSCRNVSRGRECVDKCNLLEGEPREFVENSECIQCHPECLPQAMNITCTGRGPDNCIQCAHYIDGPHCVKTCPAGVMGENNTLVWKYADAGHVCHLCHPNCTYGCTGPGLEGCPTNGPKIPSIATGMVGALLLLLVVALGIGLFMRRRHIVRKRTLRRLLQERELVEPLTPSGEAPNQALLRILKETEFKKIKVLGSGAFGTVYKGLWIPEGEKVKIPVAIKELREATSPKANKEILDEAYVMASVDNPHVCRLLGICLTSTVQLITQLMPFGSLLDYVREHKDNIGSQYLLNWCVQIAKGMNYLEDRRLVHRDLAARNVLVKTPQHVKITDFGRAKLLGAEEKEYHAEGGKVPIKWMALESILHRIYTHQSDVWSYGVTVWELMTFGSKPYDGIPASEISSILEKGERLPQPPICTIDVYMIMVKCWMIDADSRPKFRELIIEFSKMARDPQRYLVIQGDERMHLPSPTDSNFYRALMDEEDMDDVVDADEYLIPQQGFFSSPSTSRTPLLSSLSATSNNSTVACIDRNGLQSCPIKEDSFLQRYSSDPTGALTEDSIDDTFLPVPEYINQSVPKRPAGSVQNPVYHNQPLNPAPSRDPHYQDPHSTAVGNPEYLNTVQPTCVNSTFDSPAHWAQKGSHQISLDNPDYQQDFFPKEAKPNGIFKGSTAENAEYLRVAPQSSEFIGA
Ba/F3-FL-EGFR-L858R, sequence (P00533 whole entry L858R): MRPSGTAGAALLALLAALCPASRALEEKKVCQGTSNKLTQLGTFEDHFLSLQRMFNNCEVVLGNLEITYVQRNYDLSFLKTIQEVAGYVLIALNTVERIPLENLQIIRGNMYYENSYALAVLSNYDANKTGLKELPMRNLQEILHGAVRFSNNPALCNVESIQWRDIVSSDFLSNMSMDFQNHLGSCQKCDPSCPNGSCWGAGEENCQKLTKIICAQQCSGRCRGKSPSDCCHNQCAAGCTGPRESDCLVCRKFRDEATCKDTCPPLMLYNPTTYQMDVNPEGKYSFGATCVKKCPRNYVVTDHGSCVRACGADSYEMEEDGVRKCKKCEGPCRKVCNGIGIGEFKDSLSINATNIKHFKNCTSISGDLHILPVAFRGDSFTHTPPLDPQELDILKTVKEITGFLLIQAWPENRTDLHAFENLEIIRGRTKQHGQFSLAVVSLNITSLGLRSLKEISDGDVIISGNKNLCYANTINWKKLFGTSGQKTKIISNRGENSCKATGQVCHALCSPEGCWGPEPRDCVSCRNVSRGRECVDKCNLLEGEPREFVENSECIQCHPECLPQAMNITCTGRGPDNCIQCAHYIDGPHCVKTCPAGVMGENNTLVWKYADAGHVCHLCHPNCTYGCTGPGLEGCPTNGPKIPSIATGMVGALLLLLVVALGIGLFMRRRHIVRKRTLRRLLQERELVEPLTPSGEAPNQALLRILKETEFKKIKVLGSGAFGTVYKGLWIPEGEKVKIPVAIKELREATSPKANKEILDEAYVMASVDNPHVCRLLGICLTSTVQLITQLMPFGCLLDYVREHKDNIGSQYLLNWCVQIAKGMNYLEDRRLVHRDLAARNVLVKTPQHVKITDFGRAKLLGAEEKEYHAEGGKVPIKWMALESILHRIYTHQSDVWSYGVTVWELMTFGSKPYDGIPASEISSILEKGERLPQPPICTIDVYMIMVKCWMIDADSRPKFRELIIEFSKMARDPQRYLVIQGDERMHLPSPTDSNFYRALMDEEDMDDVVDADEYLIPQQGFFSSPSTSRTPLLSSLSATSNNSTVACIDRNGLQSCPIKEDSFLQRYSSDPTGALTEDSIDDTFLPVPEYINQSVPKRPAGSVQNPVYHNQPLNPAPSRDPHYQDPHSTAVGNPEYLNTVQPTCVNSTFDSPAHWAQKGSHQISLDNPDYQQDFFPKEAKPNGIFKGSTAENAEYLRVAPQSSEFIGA
Ba/F3-FL-EGFR-L858R-T790M-C797S, sequence (P00533 whole entry T790M/C797S/L858R): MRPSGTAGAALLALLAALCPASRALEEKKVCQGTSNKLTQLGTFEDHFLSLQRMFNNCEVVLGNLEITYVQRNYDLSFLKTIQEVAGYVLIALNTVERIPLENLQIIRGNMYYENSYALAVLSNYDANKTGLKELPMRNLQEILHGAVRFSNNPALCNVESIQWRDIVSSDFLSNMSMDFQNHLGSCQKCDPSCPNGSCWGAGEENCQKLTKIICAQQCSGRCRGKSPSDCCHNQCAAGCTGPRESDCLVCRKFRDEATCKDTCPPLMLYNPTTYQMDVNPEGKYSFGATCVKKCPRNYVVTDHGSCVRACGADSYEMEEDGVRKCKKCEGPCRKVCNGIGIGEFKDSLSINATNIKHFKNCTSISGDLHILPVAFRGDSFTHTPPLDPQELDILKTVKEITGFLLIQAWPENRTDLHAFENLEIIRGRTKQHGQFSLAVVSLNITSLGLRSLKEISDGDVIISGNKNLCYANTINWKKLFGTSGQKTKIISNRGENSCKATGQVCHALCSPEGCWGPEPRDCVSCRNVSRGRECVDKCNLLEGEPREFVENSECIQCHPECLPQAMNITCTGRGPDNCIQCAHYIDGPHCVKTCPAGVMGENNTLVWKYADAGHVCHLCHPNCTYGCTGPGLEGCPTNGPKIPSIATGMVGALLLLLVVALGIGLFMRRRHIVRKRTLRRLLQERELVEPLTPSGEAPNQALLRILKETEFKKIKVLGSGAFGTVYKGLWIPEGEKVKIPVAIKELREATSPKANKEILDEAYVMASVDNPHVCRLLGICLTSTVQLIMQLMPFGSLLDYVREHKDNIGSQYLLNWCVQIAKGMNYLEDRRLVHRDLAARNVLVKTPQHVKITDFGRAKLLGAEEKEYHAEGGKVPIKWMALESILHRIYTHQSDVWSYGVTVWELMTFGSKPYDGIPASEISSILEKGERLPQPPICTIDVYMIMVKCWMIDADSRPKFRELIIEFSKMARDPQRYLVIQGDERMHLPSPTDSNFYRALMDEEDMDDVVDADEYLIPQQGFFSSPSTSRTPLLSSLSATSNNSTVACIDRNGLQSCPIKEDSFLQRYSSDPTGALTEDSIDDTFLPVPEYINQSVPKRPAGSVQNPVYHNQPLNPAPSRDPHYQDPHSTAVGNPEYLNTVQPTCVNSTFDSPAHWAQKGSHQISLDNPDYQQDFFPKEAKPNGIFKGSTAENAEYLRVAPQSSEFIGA
T1 sequence (P00533 whole entry, change not shown): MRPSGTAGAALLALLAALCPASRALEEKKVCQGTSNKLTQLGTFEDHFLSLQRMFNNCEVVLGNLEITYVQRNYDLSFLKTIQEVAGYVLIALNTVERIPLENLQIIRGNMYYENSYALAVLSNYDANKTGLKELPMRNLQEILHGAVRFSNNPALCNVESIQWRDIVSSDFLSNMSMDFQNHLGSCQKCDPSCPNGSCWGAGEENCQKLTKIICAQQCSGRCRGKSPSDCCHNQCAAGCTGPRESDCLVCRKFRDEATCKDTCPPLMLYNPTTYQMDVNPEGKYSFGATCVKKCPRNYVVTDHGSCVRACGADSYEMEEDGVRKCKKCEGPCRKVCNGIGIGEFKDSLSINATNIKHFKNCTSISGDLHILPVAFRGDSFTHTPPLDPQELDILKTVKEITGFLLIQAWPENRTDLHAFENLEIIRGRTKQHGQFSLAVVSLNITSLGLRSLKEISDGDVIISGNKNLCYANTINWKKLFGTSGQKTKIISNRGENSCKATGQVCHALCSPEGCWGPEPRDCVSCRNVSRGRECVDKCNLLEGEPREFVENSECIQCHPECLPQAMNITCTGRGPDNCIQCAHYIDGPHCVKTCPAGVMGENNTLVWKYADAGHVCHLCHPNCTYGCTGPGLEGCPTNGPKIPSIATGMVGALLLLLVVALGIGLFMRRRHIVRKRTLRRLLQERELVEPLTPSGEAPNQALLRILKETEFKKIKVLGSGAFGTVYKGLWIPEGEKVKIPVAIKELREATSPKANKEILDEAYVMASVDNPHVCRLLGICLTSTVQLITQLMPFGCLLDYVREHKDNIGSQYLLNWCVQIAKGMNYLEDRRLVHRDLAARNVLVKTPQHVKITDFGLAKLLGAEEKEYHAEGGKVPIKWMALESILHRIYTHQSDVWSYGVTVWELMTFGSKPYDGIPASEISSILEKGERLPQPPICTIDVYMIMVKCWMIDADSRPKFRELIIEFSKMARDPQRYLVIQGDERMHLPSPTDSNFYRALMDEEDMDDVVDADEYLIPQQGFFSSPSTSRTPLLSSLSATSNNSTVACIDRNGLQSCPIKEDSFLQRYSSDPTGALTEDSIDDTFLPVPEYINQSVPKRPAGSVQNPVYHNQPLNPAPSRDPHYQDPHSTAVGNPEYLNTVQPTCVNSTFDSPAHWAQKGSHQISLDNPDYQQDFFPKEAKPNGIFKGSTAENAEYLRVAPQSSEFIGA

GI50 (Ba/F3-FL-EGFR)	GI50 (Ba/F3-FL-EGFR-L858R)	GI50 [1]	GI50 [2]	IC50 ([3]; 72 h)	IC50 [3]	SMILES
721 nM	71 nM	28 nM	136 nM	34 nM		CC(C)c1ccc(N2CC(CS(C)(=O)=O)C2)c2cnc(Nc3ccnc(-c4cnn(S(=O)(=O)CC5CC5)c4)n3)cc12 [Compound H14]
148 nM	5.7 nM	4.3 nM	8.6 nM		6.6 nM	COCCS(=O)(=O)n1cc(-c2nccc(Nc3cc4c(C(C)C)ccc(N5CC(CS(C)(=O)=O)C5)c4cn3)n2)cn1 [Compound H15]
1360 nM	235 nM	122 nM	652 nM	264 nM		CC(C)c1ccc(N2CC(CS(C)(=O)=O)C2)c2cnc(Nc3ccnc(-c4cnn(S(=O)(=O)c5ccccn5)c4)n3)cc12 [Compound H16]
858 nM	56 nM	33 nM	127 nM	58 nM		CC(C)c1ccc(N2CC(CS(C)(=O)=O)C2)c2cnc(Nc3ccnc(-c4cnn(S(=O)(=O)C5COC5)c4)n3)cc12 [Compound H17]
2110 nM	43 nM	22 nM	188 nM		53 nM	COCCS(=O)(=O)n1cc(-c2nccc(Nc3cc4c(C(C)C)ccc(N5CC(CS(C)(=O)=O)C5)c4cn3)n2)cn1 [Compound H20]
76 nM	2.9 nM	1.8 nM	4.4 nM	4.3 nM		COCCS(=O)(=O)n1cc(-c2nccc(Nc3cc4c(C(C)C)ccc(N5C[C@H](CS(C)(=O)=O)[C@H]5C)c4cn3)n2)cn1 [Compound H21]
229 nM	17 nM	13 nM	14 nM	14 nM		CCOCCS(=O)(=O)n1cc(-c2nccc(Nc3cc4c(C(C)C)ccc(N5C[C@H](CS(C)(=O)=O)[C@H]5C)c4cn3)n2)cn1 [Compound H22]
458 nM	42 nM	12 nM	94 nM	20 nM		CC(C)c1ccc(N2CC(CS(C)(=O)=O)C2)c2cnc(Nc3ccnc(-c4cnn(S(=O)(=O)C5CCOC5)c4)n3)cc12 (stereo not drawn) [Compound H24]
208 nM	14 nM	9.6 nM	26 nM	11 nM		CC(C)c1ccc(N2CC(N(C)S(C)(=O)=O)C2)c2cnc(Nc3ccnc(-c4cnn(S(=O)(=O)C5CC5)c4)n3)cc12 [Compound H25]
1420 nM	74 nM	56 nM	336 nM	128 nM		CC(C)c1ccc(N2CC(CS(C)(=O)=O)C2)c2cnc(Nc3ccnc(-c4cnn(CC#N)c4)n3)cc12 [Compound H26]
> 10000 nM	49 nM	21 nM	322 nM	53 nM		CCn1cc(-c2nccc(Nc3cc4c(C(C)C)ccc(N5CC(CS(C)(=O)=O)C5)c4cn3)n2)cn1 [Compound H27]
595 nM	50 nM	23 nM	68 nM	48 nM		CC(C)c1ccc(N2C[C@H](CS(C)(=O)=O)[C@H]2C)c2cnc(Nc3ccnc(-c4cnn(S(=O)(=O)N(C)C)c4)n3)cc12 [Compound H28]
739 nM	91 nM	34 nM	235 nM	59 nM		CC(C)c1ccc(N2CC(CS(C)(=O)=O)C2)c2cnc(Nc3ccnc(-c4cnn(C)c4)n3)cc12 [Compound H29]
503 nM	50 nM	55 nM	64 nM	39 nM		CC(C)c1ccc(N2C[C@H](CS(C)(=O)=O)[C@H]2C)c2cnc(Nc3ccnc(-c4cnn(S(=O)(=O)CCOC5CC5)c4)n3)cc12 [Compound H31]
3290 nM	510 nM	226 nM	397 nM	340 nM		CC(C)OCCS(=O)(=O)n1cc(-c2nccc(Nc3cc4c(C(C)C)ccc(N5C[C@H](CS(C)(=O)=O)[C@H]5C)c4cn3)n2)cn1 [Compound H32]

Reference: patent US20250092017A1, “2-PIPERIDYL OR 2-PYRAZOLYL SUBSTITUTED PYRIMIDINE COMPOUND SERVING AS EGFR INHIBITOR” (SUZHOU PUHE BIOPHARMA CO., LTD., priority 2022, published 2025)
